From paper PMC2656767 (The Journal of organic chemistry, 2009)

What was measured:
[1] = test system: wild type (ATCC 90027) C. albicans; experiment: Modified disk diffusion assay, wild type C. albicans; type: cell-based, Candida albicans; conditions: wild type strain, loads of 1-5 μg/disk
[2] = test system: amphotericin B resistant C. albicans (ATCC 200955); experiment: Modified disk diffusion assay, amphotericin B resistant C. albicans; type: cell-based; conditions: amphotericin B-resistant strain, loads of 1-5 μg/disk

For Theopapuamide A [compound 7], the “antifungal activity (in words)” value [1] was “activity” and the “antifungal activity (in words)” value [2] was “activity”.
